Laboratory results as given in patent US5574178A, “4,6-Di-t-butyl-dihydrobenzofuran-5-ol and its derivatives” (Chugai Seiyaku Kabushiki Kaisha, priority 1992, dated 1996).
pIC50: −log10 of the molar value.

Legend:
Assay type in all cases: biochemical
[1] = molecular target: lipid peroxidation due to the autoxidation of linoleic acid; assay: Linoleic acid-MCLA system, Test Case 4; conditions: linoleic acid 10 mM, MCLA 2 μM, 1-butanol, 37° C.; read-out: 50% inhibition concentration
Method: The test compounds were evaluated for their inhibitory effect against lipid peroxidation due to the autoxidation of linoleic acid.
A reaction solution was prepared by mixing linoleic acid and MCLA (2-methyl-6-(p-methoxyphenyl)-3,7-dihydroimidazo[1,2-a]pyrazin-3-one) in 1-butanol and stored in ice until use. An amount of this reaction solution was sampled in a chemiluminescence measuring cell and, immediately thereafter, the intensity of chemiluminescence due to the autoxidation of linoleic acid was measured at 37° C. in a thermostatic bath. A normal chemiluminescence intensity measurement was conducted about 2-4 min later when the chemiluminescence substantially peaked.

[2] = test system: xanthine oxidase (XOD)-hypoxanthine (HX) system (superoxide); assay: Xanthine oxidase system (superoxide generating system); conditions: pH 7.4, 37° C.
Method: The test compounds were evaluated under the following conditions for their effect in a reaction due to a xanthine oxidase (XOD)-hypoxanthine (HX) system in aqueous solution.
Xanthine oxidase 0.1 U/ml
Hepes buffer solution (pH 7.4)
(§1) A reaction solution was prepared by mixing hypoxanthine and luminol in the Hepes buffer solution and stored in ice until use. After warming the reaction solution at 37° C. for about 10 min, the reaction was started by addition of the xanthine oxidase solution. A measurement was started right after the addition of xanthine oxidase and subsequent stirring; chemiluminescence intensity was normally measured right after the start of the reaction. In the experimental model, luminol-dependent chemiluminescence induced by superoxide generated by enzymatic reaction of xanthine oxidase was detected, thus enabling the measurement of the reactivity with superoxide.

[3] = test system: lactoperoxidase reaction system (singlet oxygen); assay: Lactoperoxidase system (singlet oxygen system); conditions: pH 4.5, 37° C.
Method: The test compounds were evaluated under the following conditions for their effect against a lactoperoxidase reaction system.
Lactoperoxidase 10 μg/ml
Acetate buffer solution (pH 4.5)
as §1, with “hydrogen peroxide, sodium bromide” for “hypoxanthine”, “acetate” for “Hepes”, “lactoperoxidase” for “xanthine oxidase”, “was” for “was normally”, “singlet oxygen” for “superoxide”, “singlet oxygen.” for “superoxide.”

Rabbit LDL = assay: Amount of TBARS (Cu^2+-induced oxidation of rabbit LDL); conditions: 5 μM Cu^2+
Method: Rabbit LDL was prepared in accordance with the method of Havel et al. [Havel, R. J. et al., J. Clin. Invest., 34, (1955)]. After adding 5 μM of Cu^2+, the mixture was warmed until a thiobarbituric acid reactive substance (TBARS) was produced. The test compounds were evaluated for their anti-oxidative action with the amount of TBARS being used as an index. [formula]

Row | Chemiluminescence intensity (% of control) ([2]; at 20 μM of compound) | Chemiluminescence intensity (% of control) ([2]; at 200 μM of compound) | Chemiluminescence intensity (% of control) ([3]; at 20 μM of compound) | Chemiluminescence intensity (% of control) ([3]; at 200 μM of compound) | Structure (SMILES) | pIC50 [1] | TBARS produced (%) (Rabbit LDL; at 10^-5 M of compound, 10 µM) | TBARS produced (%) (Rabbit LDL; at 10^-6 M of compound, 1 µM)
1 | 31.9 % of control | 24.0 % of control | 105.8 % of control | 8.1 % of control | CC1Cc2c(c(C(C)(C)C)cc(O)c2C(C)(C)C)O1 (stereo not shown) [Comparison 6, reference compound] | 4.72 |  | 
2 | 21.9 % of control | 8.2 % of control | 95.3 % of control | 4.5 % of control | CC(C)(C)c1cc(O)c(C(C)(C)C)c2c1OCC2 [Comparison 5, reference compound] | 4.39 |  | 
3 | 41.8 % of control | 26.1 % of control | 94.5 % of control | 56.6 % of control | CC(C)(C)c1cc2c(c(C(C)(C)C)c1O)CCO2 [Compound a, 4,6-Di-tert-Butyl-5-Hydroxy-2,3-Dihydrobenzofuran] | 5.15 | 10.3% | 52.2%
4 | 32.7 % of control | 3.2 % of control | 82.1 % of control | 15.1 % of control | CC1Cc2c(ccc(O)c2C(C)(C)C)O1 (stereo not shown) [Comparison 2, reference compound] | 4.27 |  | 

The next lines start with the compound.

Row | Structure (SMILES) | Chemiluminescence intensity (% of control) ([2]; at 20 μM of compound) | Chemiluminescence intensity (% of control) ([2]; at 200 μM of compound) | Chemiluminescence intensity (% of control) ([3]; at 20 μM of compound) | Chemiluminescence intensity (% of control) ([3]; at 200 μM of compound) | pIC50 [1] | TBARS produced (%) (Rabbit LDL; at 10^-5 M of compound, 10 µM) | TBARS produced (%) (Rabbit LDL; at 10^-6 M of compound, 1 µM)
5 | CCC(C)c1cc2c(c(C(C)(C)C)c1O)CCO2 (stereo not shown) [Comparison 7, reference compound] | 55.8 % of control | 17.5 % of control | 86.2 % of control | 0.8 % of control | 5.15 |  | 
6 | CCCc1c2c(c(C(C)(C)C)c(O)c1C(C)(C)C)CC(C)(C)O2 [q, 5-Hydroxy-4,6-Di-tert-Butyl-2,2-Dimethyl-7-Propyl-2,3-Dihydrobenzofuran] |  |  | 104.0 % of control | 73.4 % of control | 5.30 | 56.8% | 97.4%
7 | CCCCCCCCC1Cc2c(cc(C(C)(C)C)c(O)c2C(C)(C)C)O1 (stereo not shown) [Compound g, 4,6-Di-tert-Butyl-5-Hydroxy-2-Octyl-2,3-Dihydrobenzofuran] | 88.6 % of control | 104.8 % of control | 97.0 % of control | 76.0 % of control |  | 8.8% | 82.6%
8 | CC(C)(C)c1c(O)ccc2c1CCO2 [Comparison 1, reference compound] | 23.9 % of control | 6.3 % of control | 77.6 % of control | 6.0 % of control | 4.21 |  | 
